Like-named read-outs stand apart in the source and are kept apart here.
Target: T1, OGDH (Rattus norvegicus, UniProt Q5XI78)
T1 construct: the tissue fractions with the complexes enriched to a degree allowing for a robust detection of the enzymatic activities, have been used; from tissue; host or cells: rat liver
T1 sequence (Q5XI78 41-1023): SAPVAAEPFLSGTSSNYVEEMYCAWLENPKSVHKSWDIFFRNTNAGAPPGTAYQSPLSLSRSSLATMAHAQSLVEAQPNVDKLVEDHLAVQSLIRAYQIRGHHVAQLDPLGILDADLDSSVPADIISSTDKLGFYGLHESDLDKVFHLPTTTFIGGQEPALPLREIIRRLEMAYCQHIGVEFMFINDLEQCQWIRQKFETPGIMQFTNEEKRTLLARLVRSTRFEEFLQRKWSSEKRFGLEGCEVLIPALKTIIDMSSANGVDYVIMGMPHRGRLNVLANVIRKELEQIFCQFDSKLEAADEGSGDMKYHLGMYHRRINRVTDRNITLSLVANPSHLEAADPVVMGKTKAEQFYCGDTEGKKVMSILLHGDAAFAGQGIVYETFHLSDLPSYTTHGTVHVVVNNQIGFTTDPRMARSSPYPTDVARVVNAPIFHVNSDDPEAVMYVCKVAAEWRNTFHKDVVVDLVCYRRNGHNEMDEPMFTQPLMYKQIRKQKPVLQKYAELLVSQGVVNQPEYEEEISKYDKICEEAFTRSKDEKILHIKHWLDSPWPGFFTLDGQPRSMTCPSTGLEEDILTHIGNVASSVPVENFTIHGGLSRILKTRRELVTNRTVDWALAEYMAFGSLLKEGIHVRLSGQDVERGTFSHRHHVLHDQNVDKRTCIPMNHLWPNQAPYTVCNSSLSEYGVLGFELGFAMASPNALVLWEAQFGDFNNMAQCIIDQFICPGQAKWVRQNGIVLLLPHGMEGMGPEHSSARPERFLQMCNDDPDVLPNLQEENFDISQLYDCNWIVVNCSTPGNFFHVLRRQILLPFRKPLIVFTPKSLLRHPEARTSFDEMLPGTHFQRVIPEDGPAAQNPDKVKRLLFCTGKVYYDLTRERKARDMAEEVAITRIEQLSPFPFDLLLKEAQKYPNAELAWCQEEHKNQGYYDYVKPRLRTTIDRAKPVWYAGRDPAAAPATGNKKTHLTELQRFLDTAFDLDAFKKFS
Experiment: OADH reaction catalyzed by the enzyme preparation from rat liver, high [OA] (low-affinity OA sites)
Format: biochemical
Conditions: for Amax: low-affinity sites
Experimental: Enzymes catalyzing OGDH and OADH reactions were enriched from rat hearts and livers using polyethylene glycol precipitation, as previously described (Artiukhov et al., [2020]).
The enzyme activities were assayed in the medium (pH 7.0) containing 50 mM MOPS, 1 mM ThDP, 1 mM MgCl2, 1 mM CaCl2, 1 mM dithiothreitol 0.15 mM Coenzyme A, 0.25 mM NAD^+ and various concentrations of 2-oxo substrates (0–10 mM OG or OA) and their phosphonate analogs (0–5,000 μM SP, GP, or AP). Reactions were started by addition of the enzyme preparations to the assay media. The amount of enzyme preparations (0.074 mg protein for the preparation from liver and 0.023 mg protein for the preparation from heart) were chosen to induce the lowest reliably measured reaction rate (ΔA340 = 0.001/min) at 0.01 mM OA without the phosphonates.
Reaction rates were calculated from linear parts of the product accumulation curves (up to 10 min, dependent on the reaction rate), excluding the initial region, where mixing the reagents and solubilization of the preparation affected the optical density.
Non-linear regression was used to approximate the experimental dependences of the reaction rates on the OG or OA concentration according to the Michaelis-Menten equation ( a=Amax*[S]/Km+[S] ) or its sum ( a=Amax*[S]/Km+[S]+Amax,2*[S]/Km,2+[S] ). The former equation describes one type of the active sites. […] The assumption was based on the presence of the two enzymes, OGDH and OADH, in the employed preparations.
The kinetic data were also analyzed by linear regression, using the known methods of the linearization of the Michaelis-Menten equation in the Lineweaver-Burk ( 1/a=1/Amax(1+Km/[S]) ) and Eadie-Hofstee ( a=Amax−Kmv/[S] ) coordinates. Due to the several orders of magnitude difference in the values of Km,1 and Km,2, the linear regression required separate analysis of the dependencies in the intervals of the low and high concentrations of 2-oxoadipate. The Km and Amax values obtained in independent experiments using the non-linear and linear regression analyses of the experimental data, were averaged and presented as Mean ± Standard Error of Mean.
To determine the inhibition constants (Ki), the effective values of Kmeff and Amaxeff , calculated from the hyperbolic or linear approximations as described above, were plotted against the concentration of the inhibitors ([I]). The linear regression of the equation Kmeff/Amaxeff=Km/Amax(1+[I]/Ki) , (Cornish-Bowden, [1979]) was applied to find the Intercept (Km/Amax) and Slope (Km/(Amax*Ki)) of a dependence. The values of Ki were determined as the ratio of the corresponding Intercepts to the Slopes. In the two-site model, the Ki(1) and Ki(2) were calculated separately from the linear approximations of Km,1eff/Amax,1eff vs. [I] and Km,2eff/Amax,2eff vs. [I] dependences, respectively. The standard errors of Ki were determined from means and standard errors of the Intercepts and the Slopes, using the previously described formula for standard deviation of a fraction (Bunik et al., [1999]). The Ki values obtained from the non-linear and linear regression analyses of the experimental data were averaged and presented as Mean ± Standard Error of Mean.

[1] = high [OA] 0.1–10 mM, Michaelis-Menten, read-out: Ki, MM
[2] = high [OA], Eadie-Hofstee, read-out: Ki, EH
[3] = high [OA], Lineweaver-Burk, read-out: Ki, LB
[4] = high [OA], average, read-out: Ki, Average

Compound | Amax ([I] 0.5 µM) | Amax ([I] 2 µM) | Amax ([I] 10 µM) | Amax ([I] 50 µM) | Amax ([I] 200 µM) | Ki [1] | Ki [2] | Ki [3] | Ki [4]
O=C(O)CCCCC(=O)P(=O)(O)O [AP, adipoyl phosphonate] | 0.0084 ± 0.0002 µmol/min per mg of protein | 0.0085 ± 0.0002 µmol/min per mg of protein | 0.0090 ± 0.0003 µmol/min per mg of protein | 0.0096 ± 0.0002 µmol/min per mg of protein | 0.0097 ± 0.0010 µmol/min per mg of protein | 50000 ± 2000 nM | 47000 ± 2000 nM | 46000 ± 2000 nM | 47000 ± 1000 nM
O=C(O)CCCC(=O)P(=O)(O)O [GP, glutaryl phosphonate] | – | 0.0088 ± 0.0004 µmol/min per mg of protein | 0.0093 ± 0.0005 µmol/min per mg of protein | 0.0056 ± 0.0001 µmol/min per mg of protein | – | 1400 ± 200 nM | 1300 ± 300 nM | 1300 ± 300 nM | 1300 ± 200 nM
O=C(O)CCC(=O)P(=O)(O)O [SP, succinyl phosphonate] | – | – | 0.0080 ± 0.0004 µmol/min per mg of protein | 0.0074 ± 0.0002 µmol/min per mg of protein | – | 3700 ± 100 nM | 2500 ± 400 nM | 2100 ± 400 nM | 2800 ± 500 nM
